Laboratory results: PMC11053168, “Agonist-selective activation of individual G-proteins by muscarinic receptors” (Scientific Reports, 2024)
Like-named read-outs stand apart in the source and are kept apart here.

What was measured:
[1] = biological target: T1, M2 receptor (Homo sapiens, UniProt P08172); assay: Agonist-stimulated GTPγ[35S] binding to Sf9 membranes expressing M2 receptor and individual Gαi/o; format: biochemical; parameters: host or cells: Sf9 insect cells, baculovirus (pFastBac1 / Bac-to-Bac); membranes; settings: for Activation of individual Gi/o Gα types: M2 with GαoA, GαoB, Gαi1, Gαi2, Gαi3
T1 sequence (P08172 1-466): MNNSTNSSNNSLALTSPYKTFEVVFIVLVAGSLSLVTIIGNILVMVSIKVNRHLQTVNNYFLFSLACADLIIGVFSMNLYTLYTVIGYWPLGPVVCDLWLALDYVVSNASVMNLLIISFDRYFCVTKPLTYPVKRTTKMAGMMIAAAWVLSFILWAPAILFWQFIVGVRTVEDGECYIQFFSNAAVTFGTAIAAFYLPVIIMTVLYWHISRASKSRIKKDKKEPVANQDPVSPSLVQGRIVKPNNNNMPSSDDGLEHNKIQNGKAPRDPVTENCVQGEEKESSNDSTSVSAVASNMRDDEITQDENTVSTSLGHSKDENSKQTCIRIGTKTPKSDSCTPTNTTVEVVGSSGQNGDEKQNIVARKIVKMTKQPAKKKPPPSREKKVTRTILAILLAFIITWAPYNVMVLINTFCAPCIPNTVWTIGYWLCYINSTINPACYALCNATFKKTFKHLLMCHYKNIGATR
Procedure: Baculoviral stocks for expression of M2 receptor and individual Gα-subunits of Gi/o G-proteins (GαoA, GαoB, Gαi1, Gαi2, Gαi3) in SF9 cells were generated according to Bac-to-Bac® baculovirus expression system—user guide (https://assets.thermofisher.com/TFS-Assets/LSG/manuals/MAN0000414_BactoBacExpressionSystem_UG.pdf). […] After 96 h at 27 °C, baculoviral viral particles released into the medium were harvested. After centrifugation at 500×g for 10 min to remove detached cells and cell debris, baculoviral stock P0 was ready for amplification. Suspension of Sf9 cells at density 2 × 10^6 cells per ml was infected by baculoviral stock P0 in ratio 1:1000 and after 72 h of growth (in a shaking incubator at 135 rpm and 27 °C) the amplified baculoviral stock P1 was harvested. The cell suspension was centrifugated at 500×g for 10 min to remove cells and cell debris and the supernatant containing a high level of baculoviral particles P1 was collected. FBS to the concentration of 0.5% was added and the stock was stored at 4 °C, protected from light for up to 6 months. For the quantification of baculoviral particles, a plaque assay was used.
Cells were grown in suspension culture in 250 ml Erlenmeyer flasks in Sf-900™ III serum-free medium in an aerated shaking incubator at 27 °C and 135 rpm. Cells were maintained at the density of 1–4 × 10^6 cells per ml. Sf9 cells at the density 2 × 10^6 were co-infected with baculoviral stock for the M2 receptor and a particular Gi/o Gα in the ratio (1:10). […] Infected cells were harvested by centrifugation 1000×g for 10 min. Cell pellets were kept at − 80 °C.
(§1) Membranes were prepared as described previously by Randakova et al.[33]. Cells harvested from twenty 100 mm petri dishes (CHO) or 30 ml of cell suspension (Sf9) were suspended in 20 ml of ice-cold incubation medium (100 mM NaCl, 20 mM Na-HEPES, 10 mM MgCl2, pH 7.4) supplemented with 10 mM EDTA and homogenized on ice by two 30‐s strokes using a Polytron homogenizer (Ultra-Turrax; Janke & Kunkel GmbH & Co. KG, IKA-Labortechnik, Staufen, Germany) with a 30 s pause between strokes. Cell homogenates were centrifuged for 5 min at 1000×g to remove whole cells and cell nuclei. The resulting supernatants were centrifuged for 30 min at 30,000×g. Pellets were suspended in a fresh incubation medium, incubated on ice for 30 min, and centrifuged again. The resulting membrane pellets were kept at − 80 °C until assayed within 10 weeks.
Agonist stimulated GTPγ[^35S]binding to membranes from Sf9 cells expressing the M2 receptors in a combination with α-subunit of given Gi/o type (GαoA, GαoB, Gαi1, Gαi2, Gαi3) was measured in 96-well plates in a final volume of 200 µl of incubation medium described above containing 500 pM of GTPγ[^35S] […] Nonspecific binding was determined in the presence of 1 µM nonlabelled GTPγS. Incubations were terminated and processed as described above. Parameters of functional response were calculated according to Eq. (3) after subtraction of non-specific binding.
The basal value of GTPγ[^35S] binding was determined in the absence of the agonist. After subtraction of non-specific binding determined in the presence of 10 μM nonlabelled GTPγS, GTPγ[^35S]binding was divided by the basal value and expressed as folds over basal. […] Then Eq. (3) was fitted to the data using GraphPad. Obtained EMAX and EC50 values were used to calculate RAi values using Eq. (7). To determine τ and KA of the functional responses system EMAX was determined as described earlier. Basal values were subtracted and functional responses were expressed as fractions of system EMAX. […] Obtained τ and KA values were used to calculate the bias factor according to Eq. (8), see below, for each experiment.
Equation (4) was fitted to data by the two-step procedure described earlier[61]

[2] = biological target: T2, M2 muscarinic receptor (Homo sapiens, UniProt P08172); assay: [3H]NMS competition binding, membranes from CHO cells expressing M2
T2 construct: membranes
T2 sequence (P08172 1-466): T1 sequence (P08172 1-466)
Procedure: (§2) Cells were cultured as described previously by Randakova et al.[33]. […] The medium was supplemented with 5 mM butyrate for the last 24 h of culture to increase receptor expression. Cells were washed with (phosphate-buffered saline (PBS), mechanically harvested by scraper and centrifugated 1000 × g for 5 min. Cell pellets were kept at − 80 °C.
as §1
(§3) Non-specific binding was determined in the presence of 10 μM unlabelled atropine. Incubations were terminated by filtration through filtration plates multiscreen 96 well Harvest (Merck Millipore) using a Brandel cell harvester (Brandel, Gaithersburg, MD, USA). Filtration plates were dried in a microwave oven, and then 40 μl of liquid scintillator Rotiscint eco plus (Roth) was added. The filtration plates were counted in the Microbeta scintillation counter (PerkinElmer). […] The inhibition constant KI was calculated according to Eq. (2).
(§4) Inhibition constants KI were calculated according to Eq. (2).2 KI=IC50/1+D/KD where IC50 is calculated according to Eq.

[3] = biological target: T3, M3 muscarinic receptor (Homo sapiens, UniProt P20309); assay: [3H]NMS competition binding, membranes from CHO cells expressing M3; settings: competition with [3H]NMS, mean ± SD, three experiments, read-out: Binding affinity, negative logarithm of Ki (converted)
T3 construct: membranes
T3 sequence (P20309 whole entry): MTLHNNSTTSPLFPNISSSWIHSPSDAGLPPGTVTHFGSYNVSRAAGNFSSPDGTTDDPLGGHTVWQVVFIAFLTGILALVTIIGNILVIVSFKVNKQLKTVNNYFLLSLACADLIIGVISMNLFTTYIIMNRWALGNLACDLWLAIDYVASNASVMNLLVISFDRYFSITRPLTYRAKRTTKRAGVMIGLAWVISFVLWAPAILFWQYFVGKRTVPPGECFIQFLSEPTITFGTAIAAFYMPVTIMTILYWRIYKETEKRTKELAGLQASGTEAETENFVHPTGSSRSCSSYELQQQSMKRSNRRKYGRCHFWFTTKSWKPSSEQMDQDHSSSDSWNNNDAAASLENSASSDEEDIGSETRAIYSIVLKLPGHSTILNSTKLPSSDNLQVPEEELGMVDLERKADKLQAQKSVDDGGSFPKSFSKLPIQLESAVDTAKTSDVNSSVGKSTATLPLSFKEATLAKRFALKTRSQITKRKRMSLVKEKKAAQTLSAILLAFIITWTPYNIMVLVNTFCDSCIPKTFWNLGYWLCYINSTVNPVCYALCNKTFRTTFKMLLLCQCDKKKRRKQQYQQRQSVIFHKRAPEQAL
Procedure: as §2, §1, §3, §4

[4] = biological target: T4, M1 muscarinic receptor (Homo sapiens, UniProt P11229); assay: [3H]NMS competition binding, membranes from CHO cells expressing M1; settings: competition with [3H]NMS, mean ± SD, three experiments, read-out: Binding affinity, negative logarithm of Ki (converted)
T4 construct: membranes
T4 sequence (P11229 1-460): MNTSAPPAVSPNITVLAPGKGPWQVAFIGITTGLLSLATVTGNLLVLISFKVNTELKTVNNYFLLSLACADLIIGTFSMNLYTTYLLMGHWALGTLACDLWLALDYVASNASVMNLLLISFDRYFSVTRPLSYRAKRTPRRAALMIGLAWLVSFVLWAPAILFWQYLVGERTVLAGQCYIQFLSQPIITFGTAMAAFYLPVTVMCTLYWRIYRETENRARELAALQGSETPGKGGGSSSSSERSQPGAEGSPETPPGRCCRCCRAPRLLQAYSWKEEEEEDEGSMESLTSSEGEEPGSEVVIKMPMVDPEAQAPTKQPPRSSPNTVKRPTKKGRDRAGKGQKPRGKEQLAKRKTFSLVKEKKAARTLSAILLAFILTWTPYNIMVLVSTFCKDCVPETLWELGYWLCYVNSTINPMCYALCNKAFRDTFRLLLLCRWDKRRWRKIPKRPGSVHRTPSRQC
Procedure: as §2, §1, §3, §4

[5] = biological target: T5, M4 muscarinic receptor (Homo sapiens, UniProt P08173); assay: [3H]NMS competition binding, membranes from CHO cells expressing M4
T5 construct: membranes
T5 sequence (P08173 1-479): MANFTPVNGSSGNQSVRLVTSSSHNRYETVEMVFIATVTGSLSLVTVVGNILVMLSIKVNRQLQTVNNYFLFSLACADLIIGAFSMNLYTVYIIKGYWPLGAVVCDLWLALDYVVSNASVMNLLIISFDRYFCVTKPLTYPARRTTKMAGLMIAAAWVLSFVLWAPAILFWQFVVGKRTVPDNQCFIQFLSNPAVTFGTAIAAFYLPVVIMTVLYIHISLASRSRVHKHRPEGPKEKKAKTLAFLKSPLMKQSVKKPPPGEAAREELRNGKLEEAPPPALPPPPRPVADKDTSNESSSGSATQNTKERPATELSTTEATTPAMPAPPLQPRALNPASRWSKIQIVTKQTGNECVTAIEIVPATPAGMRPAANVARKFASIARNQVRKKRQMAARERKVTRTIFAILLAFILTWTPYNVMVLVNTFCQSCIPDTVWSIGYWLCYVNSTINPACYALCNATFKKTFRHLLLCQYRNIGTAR
Procedure: as §2, §1, §3, §4

[6] = biological target: T6, M5 muscarinic receptor (Homo sapiens, UniProt P08912); assay: [3H]NMS competition binding, membranes from CHO cells expressing M5
T6 construct: membranes
T6 sequence (P08912 1-532): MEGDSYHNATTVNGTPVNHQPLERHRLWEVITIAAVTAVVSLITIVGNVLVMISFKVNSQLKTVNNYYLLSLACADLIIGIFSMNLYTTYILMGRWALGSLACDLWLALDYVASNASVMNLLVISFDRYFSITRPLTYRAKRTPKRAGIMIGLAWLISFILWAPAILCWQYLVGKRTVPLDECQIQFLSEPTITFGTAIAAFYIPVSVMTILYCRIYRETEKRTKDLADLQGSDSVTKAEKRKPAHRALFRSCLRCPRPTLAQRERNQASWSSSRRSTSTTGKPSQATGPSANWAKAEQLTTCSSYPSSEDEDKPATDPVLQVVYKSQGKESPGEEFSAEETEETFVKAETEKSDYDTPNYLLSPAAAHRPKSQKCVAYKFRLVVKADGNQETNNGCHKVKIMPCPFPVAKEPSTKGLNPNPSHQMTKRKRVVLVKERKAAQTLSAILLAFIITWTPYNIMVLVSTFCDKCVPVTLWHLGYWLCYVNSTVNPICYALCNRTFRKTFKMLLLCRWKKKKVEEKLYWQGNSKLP
Procedure: as §2, §1, §3, §4

C[N+](C)(C)CC#CCOC(=O)Nc1cccc(Cl)c1.[Cl-] [Mc-Neil A343, reference compound]
Bias according to RAi, Gαi2 vs GαoB ([1]; M2, relative to carbachol): 2.3 ×
Activation of individual Gi/o Gα types [1]: activated all Gi/o Gα

COC(=O)C1=CCC[N+](C)(Cc2cccs2)C1 (centres unmarked) [JB-13-2]
Ki [2]: 9.55 µM
Ki [3]: 126 µM
Ki [4]: 42.7 µM
Ki [5]: 22.9 µM
Ki [6]: 97.7 µM

c1csc(CN2CCOCC2)c1 [JB-12-1]
Ki ([2]; M2, competition with [3H]NMS, mean ± SD, three experiments, read-out: Binding affinity, negative logarithm of Ki (converted)): 302 µM
Ki [3]: > 1000 µM
Ki [4]: > 1000 µM
Ki ([5]; M4, competition with [3H]NMS, mean ± SD, three experiments, read-out: Binding affinity, negative logarithm of Ki (converted)): > 1000 µM
Ki ([6]; M5, competition with [3H]NMS, mean ± SD, three experiments, read-out: Binding affinity, negative logarithm of Ki (converted)): > 1000 µM

C[N+](C)(C)CC#CCOC1=NOCC1 [iperoxo, reference compound]
Bias according to RAi, Gαi3 vs GαoA ([1]; M2, relative to carbachol): 2.5 times
Activation of individual Gi/o Gα types [1]: activated all Gi/o Gα

O=C1CCCN1CC#CCN1CCCC1 [oxotremorine, reference compound]
Bias according to RAi, Gαi2 vs Gαi3 ([1]; M2, relative to carbachol): 2 ×
Activation of individual Gi/o Gα types [1]: activated all Gi/o Gα

Clc1ccc2c(c1)N=C(N1CCNCC1)c1ccccc1N2 [NDMC, reference compound]
Activation of individual Gi/o Gα types [1]: activated all Gi/o Gα
